We go through three compounds from patent US20220009920A1 (GB005, Inc., priority 2020, published 2022).

What all share (experiment): Large panel kinase profiling
Holding throughout (format): biochemical
Holding throughout (conditions): 1 μM test article, 1 mM ATP

One assay concerns the target T1, TAOK2 (Homo sapiens, UniProt Q9UL54).
T1 construct: AssayQuant Technologies, Inc. (contract assay)
T1 sequence (Q9UL54 1-1235): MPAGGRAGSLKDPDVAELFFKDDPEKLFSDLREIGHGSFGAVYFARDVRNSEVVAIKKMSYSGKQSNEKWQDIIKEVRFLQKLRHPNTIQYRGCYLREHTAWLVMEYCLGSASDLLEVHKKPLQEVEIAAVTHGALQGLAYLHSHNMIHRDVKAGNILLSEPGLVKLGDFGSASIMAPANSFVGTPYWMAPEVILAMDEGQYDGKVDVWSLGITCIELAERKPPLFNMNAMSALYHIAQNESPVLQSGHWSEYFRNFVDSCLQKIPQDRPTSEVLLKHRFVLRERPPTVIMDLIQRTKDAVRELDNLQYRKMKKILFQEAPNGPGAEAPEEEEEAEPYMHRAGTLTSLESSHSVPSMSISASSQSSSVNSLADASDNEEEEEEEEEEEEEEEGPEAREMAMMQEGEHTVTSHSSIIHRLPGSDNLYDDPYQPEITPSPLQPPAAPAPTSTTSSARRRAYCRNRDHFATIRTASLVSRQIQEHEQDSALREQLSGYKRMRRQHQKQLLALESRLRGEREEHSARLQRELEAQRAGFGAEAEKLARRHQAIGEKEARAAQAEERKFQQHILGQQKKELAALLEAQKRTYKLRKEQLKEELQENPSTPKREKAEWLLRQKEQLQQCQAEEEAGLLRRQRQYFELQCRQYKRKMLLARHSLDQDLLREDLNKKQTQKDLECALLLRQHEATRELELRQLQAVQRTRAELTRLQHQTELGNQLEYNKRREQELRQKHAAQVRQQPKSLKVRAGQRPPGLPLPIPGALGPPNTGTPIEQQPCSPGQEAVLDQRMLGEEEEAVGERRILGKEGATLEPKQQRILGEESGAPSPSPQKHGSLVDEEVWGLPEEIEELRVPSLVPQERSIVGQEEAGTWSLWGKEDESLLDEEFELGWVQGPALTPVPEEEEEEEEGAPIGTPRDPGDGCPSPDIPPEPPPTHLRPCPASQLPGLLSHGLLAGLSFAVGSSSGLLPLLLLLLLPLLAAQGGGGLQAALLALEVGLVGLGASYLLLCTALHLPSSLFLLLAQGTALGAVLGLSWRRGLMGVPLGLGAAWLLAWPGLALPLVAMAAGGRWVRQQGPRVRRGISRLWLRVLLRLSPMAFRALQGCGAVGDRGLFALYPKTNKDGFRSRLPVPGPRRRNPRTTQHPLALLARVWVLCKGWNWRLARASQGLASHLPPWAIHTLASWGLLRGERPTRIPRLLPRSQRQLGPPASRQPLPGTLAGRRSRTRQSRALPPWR
The essentials:
(§1)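 Kinase activity was followed with the PhosphoSens CSox-Sensor platform, testing compound at 1 μM in the presence of 1 mM ATP. Reactions ran at 30° C. and fluorescence (Ex 360 nm/Em 485 nm) was read kinetically every 1 min.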

Another assay concerns the target T2, MAPK12/P38G (Homo sapiens, UniProt P53778).
T2 construct: AssayQuant Technologies, Inc. (service provider)
T2 sequence (P53778 1-367): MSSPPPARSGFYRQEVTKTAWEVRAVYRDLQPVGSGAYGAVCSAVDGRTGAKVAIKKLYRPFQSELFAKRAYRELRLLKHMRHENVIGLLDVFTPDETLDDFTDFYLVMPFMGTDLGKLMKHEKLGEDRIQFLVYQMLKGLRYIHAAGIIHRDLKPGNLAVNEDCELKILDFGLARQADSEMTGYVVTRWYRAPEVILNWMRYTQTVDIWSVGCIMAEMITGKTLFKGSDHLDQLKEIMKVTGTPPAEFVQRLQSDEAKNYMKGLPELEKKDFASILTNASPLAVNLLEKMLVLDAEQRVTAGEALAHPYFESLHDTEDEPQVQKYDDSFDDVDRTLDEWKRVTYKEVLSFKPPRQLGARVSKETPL
The essentials: as §1

Another assay has as its target T3, DAPK2 (Homo sapiens, UniProt Q9UIK4).
T3 construct: AssayQuant Technologies, Inc. (service laboratory)
The essentials: as §1

For another assay, the target named is T4, GRK7 (Homo sapiens, UniProt Q8WTQ7).
T4 construct: AssayQuant Technologies, Inc. (service provider)
T4 sequence (Q8WTQ7 1-553): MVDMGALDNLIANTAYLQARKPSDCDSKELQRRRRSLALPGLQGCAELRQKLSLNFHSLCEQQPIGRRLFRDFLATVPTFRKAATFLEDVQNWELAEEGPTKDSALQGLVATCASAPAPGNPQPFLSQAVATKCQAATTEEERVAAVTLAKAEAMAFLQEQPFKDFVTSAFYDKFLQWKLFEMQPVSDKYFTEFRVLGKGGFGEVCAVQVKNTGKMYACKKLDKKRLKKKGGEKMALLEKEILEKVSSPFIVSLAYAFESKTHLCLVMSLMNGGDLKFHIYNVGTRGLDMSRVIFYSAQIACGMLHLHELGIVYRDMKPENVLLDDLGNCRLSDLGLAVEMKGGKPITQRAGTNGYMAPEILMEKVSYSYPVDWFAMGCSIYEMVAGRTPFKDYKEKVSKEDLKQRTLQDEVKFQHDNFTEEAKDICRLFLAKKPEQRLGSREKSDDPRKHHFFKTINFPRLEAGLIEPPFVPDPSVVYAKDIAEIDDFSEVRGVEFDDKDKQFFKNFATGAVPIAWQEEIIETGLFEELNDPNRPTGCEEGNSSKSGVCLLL
In a few lines: as §1

T3 sequence (Q9UIK4 whole entry, species assumed): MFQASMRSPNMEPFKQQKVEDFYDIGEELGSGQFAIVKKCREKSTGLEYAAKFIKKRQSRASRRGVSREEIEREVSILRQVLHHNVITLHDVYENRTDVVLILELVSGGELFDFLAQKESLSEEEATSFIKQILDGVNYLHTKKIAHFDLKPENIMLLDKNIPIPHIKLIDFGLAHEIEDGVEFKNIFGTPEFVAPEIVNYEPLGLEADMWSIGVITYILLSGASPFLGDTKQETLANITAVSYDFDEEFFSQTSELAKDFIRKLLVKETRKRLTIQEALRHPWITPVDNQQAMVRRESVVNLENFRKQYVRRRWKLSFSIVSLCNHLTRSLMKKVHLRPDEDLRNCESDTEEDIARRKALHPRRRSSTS

For orientation: inhibition means the drop in the measured response relative to a control, in per cent. Regarding `C=CC(=O)N1CCCC(c2c(F)cc(C(N)=O)c3[nH]c4c(c23)CCCCC4)C1` (single isomer, unassigned) [Compound 5-6], the inhibition at 1 µM is -14.5% on TAOK2, -1.9% against MAPK12/P38G, -19.1% against DAPK2 and 1.3% against GRK7.

With `C=CC(=O)N1CCC[C@@H](c2c(F)cc(C(N)=O)c3[nH]c4c(c23)CC2(CC4)CC2)C1` [Compound 6-2, (S)-5-(1-acryloylpiperidin-3-yl)-6-fluoro-1,2,4,9-tetrahydrospiro[carbazole-3,1′-cyclopropane]-8-carboxamide], the inhibition at 1 µM is -24.8% against TAOK2, 31.3% on MAPK12/P38G, 13.4% against DAPK2 and 10.9% against GRK7.

For `C=CC(=O)N1CCC[C@@H](c2c(F)cc(C(N)=O)c3[nH]c4c(c23)CCC4)C1` [Compound 10-2, (S)-8-(1-acryloylpiperidin-3-yl)-7-fluoro-1,2,3,4-tetrahydrocyclo-penta[b]indole-5-carboxamide], the inhibition at 1 µM was 11.4% on TAOK2, 4.2% at MAPK12/P38G, 13.9% at DAPK2 and -33% on GRK7.
